The record followed here is US20160077077A1, “Zinc Fluorescent Probe” (The Procter & Gamble Company, priority 2014, published 2016).

Structures are written as SMILES.

Assay [1] is described as follows: Metal ion sensing (fluorescence response of Compound R3 to Zn^2+). How it is done:
(§1) The procedure for metal ion sensing is described. Solutions of the metal ions (10.0 mM) are prepared in deionized water. A stock solutions of Compound R3 (0.2 mM) is prepared in ethanol and then diluted to 20 μM with ethanol-water (1: 1, v/v, pH 7.04) for spectral measurement. For titration experiments, a 2.0 mL solution of Compound R3 (20 μM) is filled in a quartz optical cell of 1 cm optical path length. Zn^2+ stock solution is added into the quartz optical cell gradually by micro-pipette. Spectral data is recorded at 5 min after addition. In selectivity experiments, test samples are prepared by placing appropriate amounts of metal ion stock into 2.0 mL solution of R3 (20 μM). For fluorescence measurements, excitation is provided at 560 nm, while emission is collected from 565 nm to 700 nm.

Assay [2] can be described thus: Metal ion sensing (fluorescence response of Compound R3 to Hg^2+). The note with it: excitation 560 nm. As to the method: as §1, with “A stock solutions of Compound R3 (0.2 mM) is prepared in ethanol and then diluted to 20 μM with ethanol-water (1: 1, v/v, pH 7.04) for spectral measurement.” left out
The nature of assay [3]: Metal ion sensing (fluorescence response of Compound R3 to Ca^2+). The note with it: Compound R3 2.0 × 10^−5M + Ca^2+ 20.0 × 10^−5M, ethanol-PBS (1:1, v/v, pH 8.04), excitation 560 nm. How it is done:
as §1, with “A stock solutions of Compound R3 (0.2 mM) is prepared in ethanol and then diluted to 20 μM with ethanol-water (1: 1, v/v, pH 7.04) for spectral measurement.” left out

The nature of assay [4]: Metal ion sensing (fluorescence response of Compound R3 to other metal ions). The note with it: excitation 560 nm. As to the method:
as §1, with “A stock solutions of Compound R3 (0.2 mM) is prepared in ethanol and then diluted to 20 μM with ethanol-water (1: 1, v/v, pH 7.04) for spectral measurement.” left out

In assay [5] the test system is HeLa cells. Put plainly: Fluorescence imaging of intracellular Zn^2+ (CLSM). It counts as cell-based. Conditions: λex 543 nm, emission 560-660 nm. As to the method: Confocal fluorescence imaging is performed with an OLYMPUS IX81 laser scanning microscope and a 60 ×oil-immersion objective lens. The microscope is equipped with multiple visible laser lines (405, 488, 543 nm). Images are collected and processed with Olympus FV10-ASW software.
The HeLa cell line is provided by Biochemistry and Cell Biology (China). Cells are grown in DMEM (Dulbecco's modified Eagle's medium) supplemented with 10% FBS (Fetal Bovine serum) and 5% CO2 at 37° C.
HeLa cells ([…]) are plated on […] glass cover slips and allowed to adhere for 24 hours. 10 μM of Compound R3 in the culture media containing 0.2% (v/v) DMSO is added to the cells. The cells are incubated at 37° C. for 30 min, and washed with PBS three times to remove the excess R3 probe and bathed in PBS (2 mL) before imaging. After washing with PBS (2 mL×3) to remove the excess probe, the cells are treated with 50 μM Zinc lactate for 30 min. Excitation of Compound R3 loaded cells at 543 nm is carried out with a semiconductor laser, and emission is collected at 560-660 nm (single channel).

Assay [6] relates to Streptococcus mutans (ATCC® 700610™). Put plainly: Fluorescence imaging of Zn^2+ in bacteria (CLSM). It counts as cell-based. The note with it: λex 543 nm. How it is done:
The Streptococcus mutans is prepared by inoculating the single colony from the BHI agar plate into 5 mL BHI broth and incubating at 37° C. for 48 hours. The Streptococcus mutans are separately stained with 10 μM of Compound R3 at 37° C. for 60 min.
FIG. 2a 2f are CLSM images of Streptococcus mutans (ATCC® 700610™) cells. FIGS. 2a, 2b, and 2c are said cells incubated with 10 μM of inventive Compound R3 for 60 min to assess base level background fluorescence noise. FIGS. 2d, 2e, and 2f are cells from the same sample pool subsequently incubated with 50 μM Zn^2+ for 60 min. And then red channel emission is collected at 560-660 nm for FIGS. 2b and 2e (λex=543 nm), while FIGS. 2a and 2d are bright-field images. FIG. 2c is an overlay of FIG. 2a and FIG. 2b, while FIG. 2f is an overlap of FIG. 2d and FIG. 2e.

A short description of assay [7]: Assessing Zn chelation effectiveness (R3 fluorescence with various zinc compounds). As to the method: Another application of the composition of the present invention is assessing the effectiveness of a zinc chelator or a zinc chelating system. One aspect of the invention provides a method of assessing the Zn^2+ chelating effectiveness of Zn^2+ chelator or a Zn^2+ chelating system comprising the steps: (a) incubating the Zn^2+ chelator or a Zn^2+ chelating system with a compound of the present invention; (b) shining excitation light to the incubated Zn^2+ chelator or a Zn^2+ chelating system; and (c) detecting light emission from the compound from 560 nm to 660 nm.
There are at least three variables that may affect zinc chelation. Firstly, the inherent characteristic of any particularly zinc chelator compound. Such compounds include lactate, sulfate, nitrate, chloride, citrate, anions, and the like. Mechanism of actions may include ionic interaction (as in a salt) or covalent binding. Another variable is the concentration of one or more zinc chelators in a zinc chelating system. Generally, the more of a zinc chelator the more zinc chelation is observed. […]
Table 2 is the fluorescent relative intensity of inventive Compound R3 (5.0×10^−5 M) upon the addition of various zinc compounds. Each sample contains the same level of zinc ion (5.0×10^−4 M) in H2O/DMSO (1000:1, V/V) solution, with fluorescence assessed at an excitation of 560 nm.

In the case of `CCN(CC)c1ccc2c(c1)Oc1cc(N(CC)CC)ccc1C21c2ccccc2C(=O)N1CCNCc1ccc[nH]1` [Compound R3, 2-(2-(((1H-pyrrol-2-yl)methyl)amino)ethyl)-3′,6′-bis(diethylamino)spiro[isoindoline-1,9′-xanthen]-3-one], the “Fluorescence of the solution without metal ion” value in assay [1] (Compound R3 20 μM in control ethanol-water (1:1, v/v, pH 7.04), no Zn^2+) is listed as “non fluorescent”. Besides, the “Fluorescence at 580 nm on addition of Zn^2+” value in assay [1] (Compound R3 20 μM, ethanol-water (1:1, v/v, pH 7.04), Zn^2+ 0-12 eq, excitation 560 nm) was “turned on and grew drastically”. Besides, the “Fluorescence intensity in presence of Zn^2+ (selectivity)” value in assay [1] (Compound R3 20 μM, ethanol-water (1:1, v/v, pH 7.04), excitation 560 nm) is “greatest fluorescence intensity”. Also, the “Peak Fluorescence Intensity (a.u.) at 570-580 nm” value in assay [1] (Compound R3 2.0 × 10^−5M + Zn^2+ 20.0 × 10^−5M, ethanol-PBS (1:1, v/v, pH 8.04), excitation 560 nm) is given as 0.7 a.u; in assay [2] (Compound R3 2.0 × 10^−5M + Hg^2+ 20.0 × 10^−5M, ethanol-PBS (1:1, v/v, pH 8.04)), 1.0 a.u; in assay [3], 0.25 a.u; in assay [4] (Compound R3 2.0 × 10^−5M + other metal ions (K^+, Ag^+, Ca^2+, Mg^2+, Pb^2+, Ni^2+, Mn^2+, Co^2+, Cd^2+, Cu^2+, Fe^2+, Cr^3+, Li^+, Ba^2+, Fe^3+, Na^+) 20.0 × 10^−5M, ethanol-PBS (1:1, v/v, pH 8.04)) it was below 0.1 a.u; in assay [7] (Compound R3 5.0×10^−5 M only (control, no zinc), H2O/DMSO (1000:1, V/V), excitation 560 nm) it was 0.1 a.u. Further, the “Fluorescence intensity in presence of Hg^2+ (selectivity)” value in assay [2] (Compound R3 20 μM, ethanol-water (1:1, v/v, pH 7.04)) is “greatest fluorescence intensity”. Besides, in assay [4] (Compound R3 20 μM, ethanol-water (1:1, v/v, pH 7.04), K^+, Ag^+, Ca^2+, Mg^2+, Pb^2+, Ni^2+, Mn^2+, Co^2+, Cd^2+, Cu^2+, Fe^2+, Cr^3+, Li^+, Ba^2+, Fe^3+, Na^+), the “Fluorescence intensity in presence of other transition and heavy metal ions (selectivity)” value was “minimal fluorescence intensity”. Moreover, the “Intracellular fluorescence in HeLa cells after Zn^2+” value in assay [5] (10 μM Compound R3 30 min at 37° C., then 50 μM Zn^2+ 30 min) is given as “significant fluorescence increase”. Moreover, in assay [5] (10 μM Compound R3, 30 min, 37° C., no Zn^2+ (FIG. 1b)), the “Fluorescence emission in HeLa cells without Zn^2+” value is given as “no fluorescence emission”. Besides, the “Fluorescence in Streptococcus mutans after Zn^2+” value in assay [6] (10 μM Compound R3 60 min at 37° C., then 50 μM Zn^2+ 60 min, emission 560-660 nm (FIG. 2e)) is recorded as “significant fluorescence increase”. The “Fluorescence emission in Streptococcus mutans without Zn^2+” value in assay [6] (10 μM Compound R3, 60 min, 37° C., emission 560-660 nm, no Zn^2+ (FIG. 2b)) is “no fluorescence emission”.
For the compound `CC(O)C(=O)[O-].CC(O)C(=O)[O-].[Zn+2]` (stereo not drawn) [zinc lactate, reference compound], the “Relative degree of zinc chelation effectiveness” value in assay [7] (among the zinc chelators tested (lactate, sulfate, citrate), from Table 2) was “weakest relative degree of zinc chelation effectiveness”.
